Patent US9642367B2, “Microbicidal composition” (Dow Global Technologies LLC, priority 2013, dated 2017)

Legend:
Type in all cases: cell-based
[1] = tested on: Candida albicans (C. albicans, ATCC #10231); test: MIC / synergy evaluation in 96 well microtiter plate, yeast in Yeast Malt Extract Broth; settings: visual turbidity; for MIC: Candida albicans, ATCC10231, single active acting alone, read-out: Minimum Inhibitory Concentration
Excerpt: (§1) One measure of synergism is the industrially accepted method described by Kull, F. C.; Eisman, P. C.; Sylwestrowicz, H. D. and Mayer, R. L., in Applied Microbiology 9:538-541 (1961), using the ratio determined by the formula: Qa/QA+Qb/QB=Synergy Index (“SI”) wherein:
(§2) QA=concentration of compound A (first component) in ppm, acting alone, which produced an end point (MIC of Compound A).
(§3) Qa=concentration of compound A in ppm, in the mixture, which produced an end point.
(§4) QB=concentration of compound B (second component) in ppm, acting alone, which produced an end point (MIC of Compound B).
(§5) Qb=concentration of compound B in ppm, in the mixture, which produced an end point.
(§6) When the sum of Qa/QA and Qb/QB is greater than one, antagonism is indicated. […] The lower the SI, the greater the synergy shown by that particular mixture. The minimum inhibitory concentration (MIC) of a microbicide is the lowest concentration tested under a specific set of conditions that prevents the growth of added microorganisms. The microorganisms tested were Escherichia coli(E. coli, ATCC #8739), a yeast, Candida albicans (C. albicans, ATCC #10231) and mold, Aspergillus niger (A. niger, ATCC #16404).
(§7) MBIT synergy with a secondary biocide was determined by evaluating the minimum biocide or biocide blend concentration required to inhibit microbial growth. All studies were conducted using a 96 well microtiter plate format. For all studies, 200 μl of microbial growth media, containing various concentrations of MBIT alone, the secondary biocide alone, or combinations of both biocide chemistries, was added to individual wells of a microtiter plate. Specifically, Tryptic Soy Broth (TSB) was utilized for bacteria (E. coli, ATCC #8739), Yeast Malt Extract Broth (YMB) for yeast (Candida albicans, ATCC #10231) and Potato Dextrose Broth (PDB) for mold (Aspergillus niger, ATCC #16404). Test organisms, at a final concentration of 10^4 CFU/mL or 10^4 spores/mL, were applied to each well in parallel experiments to initiate the MIC evaluations. Growth medium containing no biocide was utilized as a control in each experimental setup to confirm the growth viability of each organism. Eight concentrations (2-fold dilutions) of each individual biocide were evaluated in the microbial growth inhibition studies in addition to the 64 possible combinations of these biocide concentrations. Evaluation of the individual biocide concentrations is required to achieve an inhibitory concentration end point for synergy index calculation. […] Individual wells were scored as growth or no growth based on visual organism growth turbidity.
(§8) These microorganisms are representative of natural contaminants in many consumer and industrial applications. […] (yeast and mold) or 30° C. (bacteria).

[2] = tested on: Escherichia coli (E. coli, ATCC #8739); test: MIC / synergy evaluation in 96 well microtiter plate, bacteria in Tryptic Soy Broth; settings: visual turbidity; for MIC: Escherichia coli, ATCC8739, single active acting alone, read-out: Minimum Inhibitory Concentration
Excerpt: as §1, §2, §3, §4, §5, §6, §7, §8

[3] = tested on: Aspergillus niger (A. niger, ATCC #16404); test: MIC / synergy evaluation in 96 well microtiter plate, mold in Potato Dextrose Broth; settings: ATCC16404, single active acting alone, visual turbidity, read-out: Minimum Inhibitory Concentration
Excerpt: as §1, §2, §3, §4, §5
When the sum of Qa/QA and Qb/QB is greater than one, antagonism is indicated. […] The lower the SI, the greater the synergy shown by that particular mixture. […]
MBIT synergy with a secondary biocide was determined by evaluating the minimum biocide or biocide blend concentration required to inhibit microbial growth. […] Eight concentrations (2-fold dilutions) of each individual biocide were evaluated in the microbial growth inhibition studies in addition to the 64 possible combinations of these biocide concentrations. […] Individual wells were scored as growth or no growth based on visual organism growth turbidity. […]

Row | Structure (SMILES) | Minimum Inhibitory Concentration ([1]; single active acting alone) | Minimum Inhibitory Concentration ([2]; single active acting alone) | MIC [3] | MIC [1] | MIC [2]
1 | Cn1sc2ccccc2c1=O [MBIT, N-methyl-1,2-benzisothiazolin-3-one] | 1.50 ppm | 12.50 ppm | – | – | –
2 | CC(O)C(=O)O (stereo not shown) [Lactic acid, lactic acid] | – | – | 40000 µg/mL | 750 µg/mL | 5000 µg/mL
3 | C=CCCCCCCCCC(=O)O [Undecylenic acid, undecylenic acid] | – | – | 38 µg/mL | 7.82 µg/mL | 10000 µg/mL
4 | O=C(O)CCCCCCCC(=O)O [Azelaic acid, azelaic acid] | – | – | – | 188 µg/mL | 2500 µg/mL
